Results as given in the supplement of paper PMC13380429.

Key:
[1] = test system: A549-ACE2 infected with SARS-CoV-2; test: cell count relative to DMSO; higher = less toxic; settings: 24 h
Caco-2 [2] = test: cell viability relative to DMSO; higher = less toxic; settings: 72 h
Calu-3 [3] = test: as above; settings: 72 h
HepG2 [4] = test: as above; settings: 72 h
U2OS [5] = test: as above; settings: 72 h
Vero E6 [6] = test: as above; settings: 72 h
[7] = test system: A549-ACE2 infected with SARS-CoV-2; test: SARS-CoV-2 infection rate relative to DMSO; higher = more infection; settings: 24 h
A549-ACE2 = test: drug-induced phospholipidosis relative to tamoxifen; higher = more phospholipidosis
[8] = test system: A549-ACE2 infected with SARS-CoV-2; test: morphology score (similarity to uninfected cells); higher = more like uninfected cells; settings: 24 h
U2OS [9] = test: relative viability EC50 (midpoint between 100% and the lowest measured viability); higher = less toxic; settings: 72 h
Vero E6 [10] = test: as above; settings: 72 h
Caco-2 [11] = test: drug sensitivity score (DSS) for viability; higher = more toxic; extreme values may be limits of the assay; settings: 72 h
Calu-3 [12] = test: as above; settings: 72 h
HepG2 [13] = test: as above; settings: 72 h
U2OS [14] = test: as above; settings: 72 h
Vero E6 [15] = test: as above; settings: 72 h

C=C1C(=O)O[C@@H]2[C@H]3C(C)=CC[C@@]34O[C@@]4(C)CC[C@@H]12 [arglabin]
Settings	SARS-CoV-2 infection rate, [7] [%]	cell count, [1] [%]	cell viability, Caco-2 [2] [%]	cell viability, Calu-3 [3] [%]	cell viability, HepG2 [4] [%]	cell viability, U2OS [5] [%]	cell viability, Vero E6 [6] [%]	morphology score, [8]
1 nM	–	–	91.6	90.2	96.1	97.1	110	–
10 nM	–	–	97.8	99.8	92.2	102	99.2	–
100 nM	–	–	100	88.3	96.7	100	110	–
0.3 µM	105	96	–	–	–	–	–	0.02
1000 nM	–	–	104	105	98.2	105	103	–
3 µM	94	100	–	–	–	–	–	0.01
10 µM	95	78	–	–	–	–	–	-0.15
10000 nM	–	–	58.2	68	56.1	76.5	104	–
30 µM	33	36	–	–	–	–	–	0.3

drug-induced phospholipidosis [%], A549-ACE2
Settings	0.3 µM	0.833333 µM	3.33333 µM	6.66667 µM	10 µM	30 µM
24 h	2.94	-0.34	2.52	0.97	8.21	-1.1
48 h	2.9	0.06	1.52	0.03	4.18	–
72 h	2.96	-0.707	0.896	0.278	0.729	–

Settings	drug sensitivity score	relative viability EC50 [µM]
Caco-2 [11]	1.8	–
Calu-3 [12]	1.2	–
HepG2 [13]	2.5	–
U2OS [9]	–	> 10
U2OS [14]	0.6	–
Vero E6 [10]	–	> 10
Vero E6 [15]	0	–
